“Also recorded” adds a separate entry of the source. Where no end group is shown, it is not given here. [ ]: non-standard residue; d: D form. The star is where a group is joined. Biotin = O=C1N[C@H]2[C@H](CS[C@H]2CCCCC(=O)*)N1; sY = N[C@@H](Cc1ccc(OS(=O)(=O)O)cc1)C(=O)O; pY = N[C@@H](Cc1ccc(OP(=O)(O)O)cc1)C(=O)O
Tests used:
[1] = system: gp120JR-FL/CD4-IgG2 complex binding to CCR5; assay: Inhibition of gp120JR-FL/CD4-IgG2 complex binding to L1.2-CCR5+ cells (flow cytometry); format: cell-based, HIV-1; conditions: gp120 100 nM, biotinylated CD4-IgG2 50 nM, different concentrations of peptide
Procedure: A gp120/CD4 complex formed from monomeric gp120 (100 nM) and biotinylated CD4-IgG2 (50 nM) was added to 1×10^6 L1.2-CCR5^+ cells in the presence of different concentrations of peptide (Olson et al. J. Virol. 73:4145, 1999). CD4-IgG2 is tetrameric and therefore binds four molecules of gp120, which increases binding of the complex to CCR5 (Allaway et al. AIDS Res. Hum. Retroviruses 11:533, 1995). The mean fluorescence intensity (m.f.i.) was measured by flow cytometry after addition of phycoerythrin (PE)-labeled streptavidin (Becton Dickinson, San Jose, Calif.). Inhibition of gp120/CCR5 binding was calculated: […].

[2] = biological target: T1, gp120JR-FL/CD4-IgG2 binding to the sulfopeptide 2-18 (Homo sapiens, UniProt P51681); assay: Competition ELISA: gp120JR-FL/CD4-IgG2 binding to sulfopeptide 2-18; parameters: species or system HIV-1; conditions: complex 1 nM, up to supraphysiologic concentrations
T1 construct: a peptide spanning CCR5 residues 2-18 and containing sulfotyrosines in positions 10 and 14; host or cells: peptide synthetic
Procedure: In a competition ELISA, peptides were captured onto the plates as described above. Inhibitor or assay buffer was added for 1 h prior to addition of gp120JR-FL/CD4-IgG2 complex (1 nM) for an additional h at room temperature. The assay was then completed as described above. Direct binding of anti-CCR5 murine MAbs to the peptides was examined as described above except that MAb was substituted for gp120/CD4-IgG2 complex and a goat anti-mouse HRP-coupled antibody was used for detection.

gp120JR-FL/CD4-IgG2 = assay: CCR5 Nt peptide ELISA with gp120JR-FL/CD4-IgG2; format: binding, HIV-1; conditions: for Avidity for gp120JR-FL/CD4-IgG2 relative to 2-18 (fold lower): ELISA; for Binding of gp120JR-FL/CD4-IgG2 to peptide (ELISA): peptide 1 μg/ml on streptavidin plate
Procedure: Streptavidin-coated ELISA plates (Pierce, Rockford, Ill.) were blocked with D-PBS/5% BSA for 2 hours at room temperature then washed three times with assay buffer (D-PBS/0.5% Tween 20/1% Fetal Bovine Serum/2% BSA). Plates were then contacted with sulfo- or phospho-peptides (1 μg/ml) for 1 hour at room temperature and washed three times with assay buffer. […] The plates were developed using the TMB substrate as described above.

gp120JR-FL/sCD4 = assay: BIAcore: gp120JR-FL/sCD4 binding to immobilized biotinylated CCR5 Nt peptide; parameters: species or system HIV-1; conditions: protein 100 nM; 400 RU biotinylated peptide on streptavidin chip
Procedure: (§1) Streptavidin-coated sensor chips (BIAcore AB, Sweden) were conditioned with five injections of regeneration solution (1M NaCl, 50 mM NaOH) and equilibrated with HBS-EP buffer (10 mM HEPES, 150 mM NaCl, […], 0.005% polysorbate 20) as recommended by the manufacturer. Biotinylated peptides were then immobilized on the chip by injection of peptide (100 nM) in HBS-EP buffer, followed by an injection of regeneration solution and equilibration with HBS-EP buffer. 400 resonance units (RU) of peptide were bound to the sensor chip surface. Solutions of the following proteins (100 nM) were passed over the sensor chip surface: gp120, sCD4, gp120/sCD4, PA8, PA10 and 2D7. […] Following injection of each solution the chip was regenerated and equilibrated as described above.
Biotinylated peptide was attached to the streptavidin-coated gold surface of a sensor chip and solutions containing different gp120/sCD4 complexes were flowed over the immobilized peptide. Adsorption of the complex due to complex/peptide binding was detected by an increase in surface plasmon resonance signal (RU), which reports changes in the effective refraction index very near the gold surface of the sensor chip (Schuck Ann. Rev. Biophys Biomol Struct 26:541, 1997). […]
Binding of gp120/CD4-IgG2 complex and MAbs to CCR5 Nt-based peptides was measured as previously described. […]

PA10 = assay: BIAcore: PA10 on immobilized peptide; format: binding, mouse; conditions: MAb 100 nM
Procedure: as §1

PA10 binding to CCR5 = assay: Inhibition of anti-CCR5 MAb PA10 binding to L1.2-CCR5 cells; format: cell-based, mouse; conditions: MAb 50 nM, peptide 100 μM
Procedure: L1.2-CCR5 cells (1×10^6) were incubated with anti-CCR5 MAb (50 nM)±peptide (100 μM). MAb binding was detected using a PE-labeled goat anti-mouse antibody (Caltag Laboratories, Burlingam, Calif.). The m.f.i value was measured by flow cytometry as described (Olson et al. J. Virol. 73:4145, 1999). MAb binding was calculated as above.

S-14: peptide spanning amino acids 2-18 of the CCR5 Nt, sulfo-tyrosine in position 14 (DYQVSSPIYDIN[sY]YTSE; not fully specified; UniProt P51681 2-18, looked up, fragment)
Inhibition of gp120JR-FL/CD4-IgG2 binding to CCR5+ cells [1]: no inhibitory activity

MIP-1α: CC-chemokine known to bind CCR5
Inhibition of gp120JR-FL/CD4-IgG2 binding to the sulfopeptide 2-18 [2]: not inhibited

S-10/14: tyrosine-sulfated peptide spanning amino acids 2-18 of the CCR5 Nt, sulfo-tyrosines in positions 10 and 14 (DYQVSSPI[sY]DIN[sY]YTSE; UniProt P51681 2-18, looked up, fragment)
Inhibition of gp120JR-FL/CD4-IgG2 binding to CCR5+ cells [1]: inhibited complex binding to the cells in a dose-dependent manner

8-15: CCR5 residues 8-15, sulfotyrosines in positions 10 and 14, GAG spacer, biotinylated lysine (PI[sY]DIN[sY]YGAG-{K(biotin)}; UniProt P51681 8-15, looked up, fragment)
Avidity for gp120JR-FL/CD4-IgG2 relative to 2-18 (fold lower) (gp120JR-FL/CD4-IgG2): at least ten-fold less avidly

6-16: CCR5 residues 6-16, sulfotyrosines in positions 10 and 14, GAG spacer, biotinylated lysine (SSPI[sY]DIN[sY]YTGAG-{K(biotin)}; UniProt P51681 6-16, looked up, fragment)
Avidity for gp120JR-FL/CD4-IgG2 relative to 2-18 (fold lower) (gp120JR-FL/CD4-IgG2): at least ten-fold less avidly

bP-10/14: biotinylated version of P-10/14 with C-terminal GAG spacer preceding a biotinylated lysine; apparently as 2-18(P) (DYQVSSPI[pY]DIN[pY]YTSEGAGK(Biotin))
Association of gp120JR-FL/sCD4 complex with immobilized peptide (RU) (gp120JR-FL/sCD4): complete lack of association

bS-10/14: biotinylated version of S-10/14 with C-terminal GAG spacer preceding a biotinylated lysine; apparently as 2-18 (DYQVSSPI[sY]DIN[sY]YTSEGAGK(Biotin))
Association of PA10 with immobilized peptide (BIAcore) (PA10): associate
Association of gp120JR-FL/sCD4 complex with immobilized peptide (RU) (gp120JR-FL/sCD4): significant increase in RU

S-10: peptide spanning amino acids 2-18 of the CCR5 Nt, sulfo-tyrosine in position 10 (DYQVSSPI[sY]DINYYTSE; UniProt P51681 2-18, looked up, fragment)
Inhibition of gp120JR-FL/CD4-IgG2 binding to CCR5+ cells [1]: no inhibitory activity

TS-10/14: peptide spanning amino acids 10-14 of CCR5, two sulfo-tyrosine residues ([sY]DIN[sY])
Inhibition of gp120JR-FL/CD4-IgG2 binding to CCR5+ cells [1]: did not inhibit

10-18: CCR5 residues 10-18 (YDINYYTSE), sulfotyrosines in positions 10 and 14, GAG spacer, biotinylated lysine ([sY]DIN[sY]YTSEGAG-{K(biotin)})
Avidity for gp120JR-FL/CD4-IgG2 relative to 2-18 (fold lower) (gp120JR-FL/CD4-IgG2): ~3 fold
Binding of gp120JR-FL/CD4-IgG2 to peptide (ELISA) (gp120JR-FL/CD4-IgG2): significant binding; also recorded: avidly bound

RANTES: CC-chemokine known to bind CCR5
Inhibition of gp120JR-FL/CD4-IgG2 binding to the sulfopeptide 2-18 [2]: not inhibited

S-3/10/14: tyrosine-sulfated peptide spanning amino acids 2-18 of the CCR5 Nt, sulfo-tyrosines in positions 3, 10 and 14 (D[sY]QVSSPI[sY]DIN[sY]YTSE; UniProt P51681 2-18, looked up, fragment)
Inhibition of PA10 binding to CCR5+ cells (PA10 binding to CCR5): inhibited
Inhibition of gp120JR-FL/CD4-IgG2 binding to CCR5+ cells [1]: inhibited complex binding to the cells in a dose-dependent manner

10-18(11A/18A): peptide 10-18 with residues Asp-11 and Glu-18 substituted for alanines ([sY]AIN[sY]YTSA; not fully specified (C-terminus); UniProt P51681 10-18, looked up, variant D11A E18A)
Binding of gp120JR-FL/CD4-IgG2 to peptide (ELISA) (gp120JR-FL/CD4-IgG2): only weakly bound

B1: MIP-1β: CC-chemokine known to bind CCR5 (protein, UniProt P13236 24-92, looked up)
C-C motif chemokine 4: APMGSDPPTACCFSYTARKLPRNFVVDYYETSSLCSQPAVVFQTKRSKQVCADPSESWVQEYVYDLELN
Inhibition of gp120JR-FL/CD4-IgG2 binding to the sulfopeptide 2-18 [2]: not inhibited

From patent US6908734B2, “Sulfated CCR5 peptides for HIV-1 infection” (priority 2000, dated 2005)
